Experimental data taken from patent US12371454B2, “Cyclic peptide compound having Kras inhibitory action” (priority 2019, dated 2025).
Positions of bridges follow the written chain, without caps; N, C: chain ends. Non-standard residues stand in square brackets, D forms with d. Residues, ends and D or L forms follow the SMILES beside them. *: point of attachment. hPhe(3,5-F2-4-CF3) = N[C@@H](CCc1cc(F)c(C(F)(F)F)c(F)c1)C(=O)O; hPhe(3-Cl-4-CF3) = N[C@@H](CCc1ccc(C(F)(F)F)c(Cl)c1)C(=O)O; hPhe(3-F,4-CF3) = N[C@@H](CCc1ccc(C(F)(F)F)c(F)c1)C(=O)O; NMePhe(4-CF3) = CN[C@@H](Cc1ccc(C(F)(F)F)cc1)C(=O)O; 3Oxa8azabicyclo(3.2.1)octane = C1CC2COCC1N2*; NMePhe(4-Me) = CN[C@@H](Cc1ccc(C)cc1)C(=O)O; NMeAla(cPent) = CN[C@@H](CC1CCCC1)C(=O)O; NMeGly(cPent) = CN[C@H](C(=O)O)C1CCCC1; NMeCha = CN[C@@H](CC1CCCCC1)C(=O)O; cisHyp = O=C(O)[C@@H]1C[C@H](O)CN1; NMehLeu = CN[C@@H](CCC(C)C)C(=O)O; Hyp = O=C(O)[C@@H]1C[C@@H](O)CN1; NMeChg = CN[C@H](C(=O)O)C1CCCCC1; NMeD = CN[C@@H](CC(=O)O)C(=O)O; NMeL = CN[C@@H](CC(C)C)C(=O)O; dNMeAbu = CC[C@@H](NC)C(=O)O; NMeV = CN[C@H](C(=O)O)C(C)C; d(β3hA) = C[C@@H](N)CC(=O)O; NMeS = CN[C@@H](CO)C(=O)O; NMeA = CN[C@@H](C)C(=O)O; Piperidide = C1CCN(*)CC1; dNMeA = CN[C@H](C)C(=O)O; Ac5c = NC1(C(=O)O)CCCC1; Aze = O=C(O)[C@@H]1CCN1; NEtG = CCNCC(=O)O; Sar = CNCC(=O)O; Propyl = CCC*

Tested on: Human pancreatic cancer cell line AsPC-1
Assay: Measurement of AsPC-1 cell growth inhibition (AsPC-1 CGI)
Assay type: cell-based
Settings: 96 h
Summary of the method: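 AsPC-1 cells in 15% FBS RPMI-1640 were exposed to test compound for 96 hours at 37° C, with CellTiter-Glo as endpoint.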

| SMILES | IC50 [nM] |
| --- | --- |
| CCCOC[C@H]1C(=O)N(C)CC(=O)N[C@@H](CCc2ccc(C(F)(F)F)c(Cl)c2)C(=O)N2CCC[C@H]2C(=O)NC2(CCCC2)C(=O)N(C)[C@@H](C2CCCC2)C(=O)N(C)[C@H](C(=O)N2C3CCC2COC3)CC(=O)N(C)[C@@H](CCC(C)C)C(=O)N[C@@H]([C@@H](C)CC)C(=O)N[C@@H](C)C(=O)N2CC[C@H]2C(=O)N1C [Compound 1326] ([NMehLeu]IA[Aze][NMeS](Propyl)[Sar][hPhe(3-Cl-4-CF3)]P[Ac5c][NMeGly(cPent)][NMeD]-{3Oxa8azabicyclo(3.2.1)octane}; lactam N-11) | 20 to 50 |
| CC[C@H](C)[C@@H]1NC(=O)[C@H](CC(C)C)N(C)C(=O)C[C@@H](C)NC(=O)[C@H](C2CCCC2)N(C)C(=O)C2(CCCC2)NC(=O)[C@@H]2CCCN2C(=O)[C@H](CCc2ccc(C(F)(F)F)c(Cl)c2)NC(=O)CN(C)C(=O)[C@H](Cc2ccc(C)cc2)N(C)C(=O)[C@@H]2CCN2C(=O)[C@H](C)NC1=O [Compound 1331] (cyclo(A[Aze][NMePhe(4-Me)][Sar][hPhe(3-Cl-4-CF3)]P[Ac5c][NMeGly(cPent)][d(β3hA)][NMeL]I)) | 50 to 100 |
| CC[C@H](C)[C@@H]1NC(=O)[C@H](CC(C)C)N(C)C(=O)C[C@@H](C(=O)N2CCCCC2)N(C)C(=O)[C@H](C(C)C)N(C)C(=O)C2(CCCC2)NC(=O)[C@@H]2CCCN2C(=O)[C@H](CCc2ccc(C(F)(F)F)c(Cl)c2)NC(=O)CN(C)C(=O)[C@H](CC2CCCCC2)N(C)C(=O)[C@@H]2CCN2C(=O)[C@H](C)NC1=O [Compound 1334] ([NMeL]IA[Aze][NMeCha][Sar][hPhe(3-Cl-4-CF3)]P[Ac5c][NMeV][NMeD]-Piperidide; lactam N-11) | 100 to 500 |
| CCCOC[C@H]1C(=O)N(CC)CC(=O)N[C@@H](CCc2ccc(C(F)(F)F)c(Cl)c2)C(=O)N2CCC[C@H]2C(=O)NC2(CCCC2)C(=O)N(C)[C@@H](C2CCCC2)C(=O)N(C)[C@H](C(=O)N2C3CCC2COC3)CC(=O)N(C)[C@@H](CC(C)C)C(=O)N[C@@H]([C@@H](C)CC)C(=O)N(C)[C@@H](C)C(=O)N2CC[C@H]2C(=O)N1C [Compound 1338] ([NMeL]I[NMeA][Aze][NMeS](Propyl)[NEtG][hPhe(3-Cl-4-CF3)]P[Ac5c][NMeGly(cPent)][NMeD]-{3Oxa8azabicyclo(3.2.1)octane}; lactam N-11) | 50 to 100 |
| CC[C@H](C)[C@@H]1NC(=O)[C@H](CC2CCCC2)N(C)C(=O)C[C@@H](C(=O)N(C)C)N(C)C(=O)[C@H](C2CCCC2)N(C)C(=O)C2(CCCC2)NC(=O)[C@@H]2CCCN2C(=O)[C@H](CCc2ccc(C(F)(F)F)c(F)c2)NC(=O)CN(C)C(=O)[C@H](CC2CCCCC2)N(C)C(=O)[C@@H]2CCN2C(=O)[C@H](C)NC1=O [Compound 1340] ([NMeAla(cPent)]IA[Aze][NMeCha][Sar][hPhe(3-F,4-CF3)]P[Ac5c][NMeGly(cPent)][NMeD]-NMe2; lactam N-11) | 20 to 50 |
| CC[C@H](C)[C@@H]1NC(=O)[C@H](CC(C)C)N(C)C(=O)C[C@@H](C(=O)N2CCCCC2)NC(=O)[C@H](C(C)C)N(C)C(=O)C2(CCCC2)NC(=O)[C@@H]2CCCN2C(=O)[C@H](CCc2ccc(C(F)(F)F)c(Cl)c2)NC(=O)CN(C)C(=O)[C@H](CC2CCCCC2)N(C)C(=O)[C@@H]2CCN2C(=O)[C@H](C)N(C)C1=O [Compound 1353] ([NMeL]I[NMeA][Aze][NMeCha][Sar][hPhe(3-Cl-4-CF3)]P[Ac5c][NMeV]D-Piperidide; lactam N-11) | 100 to 500 |
| CCCOC[C@H]1C(=O)N(C)CC(=O)N[C@@H](CCc2cc(F)c(C(F)(F)F)c(F)c2)C(=O)N2CCC[C@H]2C(=O)NC2(CCCC2)C(=O)N(C)[C@@H](C2CCCC2)C(=O)N(C)[C@H](C(=O)N2C3CCC2COC3)CC(=O)N(C)[C@@H](CC(C)C)C(=O)N[C@@H]([C@@H](C)CC)C(=O)N(C)[C@@H](C)C(=O)N2CC[C@H]2C(=O)N1C [Compound 1355] ([NMeL]I[NMeA][Aze][NMeS](Propyl)[Sar][hPhe(3,5-F2-4-CF3)]P[Ac5c][NMeGly(cPent)][NMeD]-{3Oxa8azabicyclo(3.2.1)octane}; lactam N-11) | 20 to 50 |
| CCCOC[C@H]1C(=O)N(C)CC(=O)N[C@@H](CCc2ccc(C(F)(F)F)c(Cl)c2)C(=O)N2CCC[C@H]2C(=O)NC2(CCCC2)C(=O)N(C)[C@@H](C2CCCC2)C(=O)N(C)[C@H](C(=O)N2C3CCC2COC3)CC(=O)N(C)[C@@H](CC2CCCC2)C(=O)N[C@@H]([C@@H](C)CC)C(=O)N[C@@H](C)C(=O)N2CC[C@H]2C(=O)N1C [Compound 1359] ([NMeAla(cPent)]IA[Aze][NMeS](Propyl)[Sar][hPhe(3-Cl-4-CF3)]P[Ac5c][NMeGly(cPent)][NMeD]-{3Oxa8azabicyclo(3.2.1)octane}; lactam N-11) | 50 to 100 |
| CC[C@H](C)[C@@H]1NC(=O)[C@H](CC(C)C)N(C)C(=O)C[C@@H](C(=O)N2CCCCC2)N(C)C(=O)[C@H](C2CCCCC2)N(C)C(=O)C2(CCCC2)NC(=O)[C@@H]2C[C@H](O)CN2C(=O)[C@H](CCc2ccc(C(F)(F)F)c(Cl)c2)NC(=O)CN(C)C(=O)[C@H](CC2CCCCC2)N(C)C(=O)CN(C)C(=O)CN(C)C1=O [Compound 1374, (3S,9S,18S,21S,25S,28S,34S,36S)-3-[2-[3-chloro-4-(trifluoromethyl)phenyl]ethyl]-28-cyclohexyl-9-(cyclohexylmethyl)-36-hydroxy-21-isobutyl-7,10,13,16,22,26,29-heptamethyl-18-[(1S)-1-methylpropyl]-25-(piperidine-1-carbonyl)spiro[1,4,7,10,13,16,19,22,26,29,32-undecazabicyclo[32.3.0]heptatriacontane-31,1′-cyclopentane]-2,5,8,11,14,17,20,23,27,30,33-undecone] ([NMeL]I[Sar][Sar][NMeCha][Sar][hPhe(3-Cl-4-CF3)][cisHyp][Ac5c][NMeChg][NMeD]-Piperidide; lactam N-11) | 50 to 100 |
| CC[C@H](C)[C@@H]1NC(=O)[C@H](CC(C)C)N(C)C(=O)C[C@@H](C(=O)N2CCCCC2)N(C)C(=O)[C@H](C2CCCCC2)N(C)C(=O)C2(CCCC2)NC(=O)[C@@H]2C[C@@H](O)CN2C(=O)[C@H](CCc2ccc(C(F)(F)F)c(Cl)c2)NC(=O)CN(C)C(=O)[C@H](CC2CCCCC2)N(C)C(=O)CN(C)C(=O)CN(C)C1=O [Compound 1376, (3S,9S,18S,21S,25S,28S,34S,36R)-3-[2-[3-chloro-4-(trifluoromethyl)phenyl]ethyl]-28-cyclohexyl-9-(cyclohexylmethyl)-36-hydroxy-21-isobutyl-7,10,13,16,22,26,29-heptamethyl-18-[(1S)-1-methylpropyl]-25-(piperidine-1-carbonyl)spiro[1,4,7,10,13,16,19,22,26,29,32-undecazabicyclo[32.3.0]heptatriacontane-31,1′-cyclopentane]-2,5,8,11,14,17,20,23,27,30,33-undecone] ([NMeL]I[Sar][Sar][NMeCha][Sar][hPhe(3-Cl-4-CF3)][Hyp][Ac5c][NMeChg][NMeD]-Piperidide; lactam N-11) | 100 to 500 |
| CC[C@@H]1C(=O)NC2(CCCC2)C(=O)N(C)[C@@H](C2CCCC2)C(=O)N(C)[C@H](C(=O)N2CCCCC2)CC(=O)N(C)[C@@H](CC(C)C)C(=O)N[C@@H]([C@@H](C)CC)C(=O)N(C)CC(=O)N(C)CC(=O)N(C)[C@@H](CC2CCCCC2)C(=O)N(C)CC(=O)N[C@@H](CCc2ccc(C(F)(F)F)c(Cl)c2)C(=O)N1C [Compound 1439] ([NMeL]I[Sar][Sar][NMeCha][Sar][hPhe(3-Cl-4-CF3)][dNMeAbu][Ac5c][NMeGly(cPent)][NMeD]-Piperidide; lactam N-11) | 100 to 500 |
| CC[C@H](C)[C@@H]1NC(=O)[C@H](CC(C)C)N(C)C(=O)C[C@@H](C)NC(=O)[C@H](C2CCCC2)N(C)C(=O)C2(CCCC2)NC(=O)[C@@H]2CCCN2C(=O)[C@H](CCc2ccc(C(F)(F)F)c(Cl)c2)NC(=O)CN(C)C(=O)[C@H](Cc2ccc(C)cc2)N(C)C(=O)CN(C)C(=O)CN(C)C1=O [Compound 1471, (3S,9S,18S,21S,25R,28S,34S)-3-[2-[3-chloro-4-(trifluoromethyl)phenyl]ethyl]-28-cyclopentyl-21-isobutyl-7,10,13,16,22,25,29-heptamethyl-18-[(1S)-1-methylpropyl]-9-(p-tolylmethyl)spiro[1,4,7,10,13,16,19,22,26,29,32-undecazabicyclo[32.3.0]heptatriacontane-31,1′-cyclopentane]-2,5,8,11,14,17,20,23,27,30,33-undecone] (cyclo([Ac5c][NMeGly(cPent)][d(β3hA)][NMeL]I[Sar][Sar][NMePhe(4-Me)][Sar][hPhe(3-Cl-4-CF3)]P)) | 100 to 500 |
| CC[C@H](C)[C@@H]1NC(=O)[C@H](CC(C)C)N(C)C(=O)C[C@@H](C)NC(=O)[C@H](C2CCCC2)N(C)C(=O)C2(CCCC2)NC(=O)[C@@H]2CCCN2C(=O)[C@H](CCc2ccc(C(F)(F)F)c(Cl)c2)NC(=O)CN(C)C(=O)[C@H](Cc2ccc(C(F)(F)F)cc2)N(C)C(=O)[C@@H]2CCN2C(=O)[C@H](C)N(C)C1=O [Compound 1475] (cyclo([Ac5c][NMeGly(cPent)][d(β3hA)][NMeL]I[NMeA][Aze][NMePhe(4-CF3)][Sar][hPhe(3-Cl-4-CF3)]P)) | 50 to 100 |
| CC[C@H](C)[C@@H]1NC(=O)[C@H](CC(C)C)N(C)C(=O)C[C@@H](C)NC(=O)[C@H](C2CCCC2)N(C)C(=O)C2(CCCC2)NC(=O)[C@@H]2CCCN2C(=O)[C@H](CCc2ccc(C(F)(F)F)c(Cl)c2)NC(=O)CN(C)C(=O)[C@H](CC2CCCCC2)N(C)C(=O)[C@@H]2CCN2C(=O)[C@H](C)N(C)C1=O [Compound 1477] (cyclo([Ac5c][NMeGly(cPent)][d(β3hA)][NMeL]I[NMeA][Aze][NMeCha][Sar][hPhe(3-Cl-4-CF3)]P)) | 100 to 500 |
| CC[C@H](C)[C@@H]1NC(=O)[C@H](CC(C)C)N(C)C(=O)C[C@@H](C)NC(=O)[C@H](C2CCCC2)N(C)C(=O)C2(CCCC2)NC(=O)[C@@H]2CCCN2C(=O)[C@H](CCc2ccc(C(F)(F)F)c(Cl)c2)NC(=O)[C@@H](C)N(C)C(=O)[C@H](Cc2ccc(C(F)(F)F)cc2)N(C)C(=O)[C@@H]2CCN2C(=O)[C@H](C)N(C)C1=O [Compound 1482] (cyclo([Ac5c][NMeGly(cPent)][d(β3hA)][NMeL]I[NMeA][Aze][NMePhe(4-CF3)][dNMeA][hPhe(3-Cl-4-CF3)]P)) | 100 to 500 |
